Reference: US8765675B2, “Use of calcitonin in osteoarthritis” (Novartis AG, priority 2003, dated 2014)
Blank lines part the entries; values can stand above or below the molecule they belong to. Where no end group is shown, it is not given here.

How the values were obtained:
[1] = Water solubility of delivery agent
[2] = in vivo
cartilage = settings: cited from earlier work
[3] = system: animal epiphyseal cartilage, rabbit and human cartilage; settings: in vitro; cited from earlier work
[4] = system: urinary C-terminal telopeptide of collagen type I (CTX-I); experiment: 3-month oral sCT treatment, 24 hours urinary CTX-I corrected for creatinine; format: in vivo, human; settings: 1.0 mg sCT daily oral, 3-month treatment, compared to placebo group, p<0.001
Experimental: (§1) Women receive treatment with either daily (0.15, 0.4, 1.0, or 2.5 mg) orally dosed sCT (see below for pharmaceutical compositions) combined with eligen technology-based carrier molecule (200 mg), or placebo for 3 months. All participants receive a calcium supplement of 1000 mg plus 400 IU of vitamin D daily throughout the study. Efficacy parameters are 24 hours urinary C-terminal telopeptide of collagen type I (CTX-I) and CTX-II corrected for creatinine excretion assessed at baseline and after 3-month therapy.
(§2) C-telopeptide of type I collagen (CTX I) is considered to be a specific marker sensitive to bone resorption; conversely, type II collagen C-telopeptide (CTX-II) is considered to be a useful cartilage marker.

[5] = system: urinary collagen type II degradation products (CTX-II); experiment: 3-month oral sCT treatment, 24 hours urinary CTX-II corrected for creatinine; format: in vivo, human
Experimental: as §1, §2

water solubility [1]: very water soluble
Molecule: O=C(O)CCCCCCCNC(=O)c1cc(Cl)ccc1O [5 CNAC, N-(5-chlorosalicyloyl)-8-aminocaprylic acid]

absorbed by the gastro-intestinal tract [2]: more than 90%
Molecule: O=C(O)CCCCCCCCCNC(=O)c1ccccc1O [SNAD, N-(10-[2-hydroxybenzoyl]amino)decanoic acid]

Molecule: calcitonin (CGNLSTCMLGTYTQDFNKFHTFPQTAIGVGAP; ends and bridges not checked; cysteine pairing not given here; UniProt P01258 85-116, looked up) [origin not specified in cited studies]
effect on cartilage (cartilage; another menisectomy model (Colombo 1983)): no effect on cartilage | effect on cartilage destruction (cartilage; rabbits treated with steroids, partial menisectomy or joint immobilization (Badurski 1991)): prevent cartilage destruction | effect on proteoglycan and collagen synthesis in cartilage [3]: stimulate proteoglycan and collagen synthesis

Molecule: salmon calcitonin [sCT]
reduction in 24-hours urinary CTX-I [4]: −41.0% | decrease in urinary CTX-II after 3-month treatment ([5]; 0.4 mg sCT daily oral, postmenopausal women, compared to placebo, p=0.04): −15.2% | decrease in urinary CTX-II after 3-month treatment ([5]; 1.0 mg sCT daily oral, postmenopausal women, compared to placebo, p=0.009): −19.7% | decrease in urinary CTX-II after 3-month treatment ([5]; 1.0 mg sCT, women in the highest tertile of baseline urinary CTX-II): −36.6% | decrease in urinary CTX-II after 3-month treatment ([5]; 1.0 mg sCT, women in the lowest tertile of baseline urinary CTX-II): −9.9% | decrease in urinary CTX-II after 3-month treatment ([5]; 2.5 mg sCT daily oral, postmenopausal women, compared to placebo, p=0.02): −17.5% | 24 hours urinary CTX-II response to oral sCT, dose relationship ([5]; 0.15, 0.4, 1.0, 2.5 mg daily, 3 months, ANOVA=0.012): clear and significant dose dependent relationship
